Data: patent US20120263791A1, “FOMULATION COMPRISING 1 H-QUINAZOLINE-2, 4-DIONE AMPA RECEPTOR ANTAGONISTS, IN THE FORM OF IMMEDIATE RELEASE TABLETS AND PREPARATION THEREOF” (NOVARTIS AG, priority 2009, published 2012)

Test: PK parameters after a single dose of three 50 mg tablets to a sample population (12)
Type: in vivo
Details: human, po, 150 mg, plasma, three 50 mg tablets of Example 4 in a single dose
Method: A 50 mg tablet as specified in Example 4 was prepared using the procedure described in Example 4. Three tablets were administered in a single dose to a sample population (12) and the PK parameters measured. These parameters are provided below.
Primary PK variables were […] and analyzed using a mixed effects linear model. Sequence, Period and Treatment factors were included in the model as fixed effects and subject as a random effect. 90% confidence intervals for PK variables (pharmacokinetic analysis population).
Drug Substance: Compound (iii); Matrix: Plasma; Analyte: Compound (iii).

- AUC(0-inf) (read-out: AUCinf, adjusted geometric mean): 16800 ng·h/mL
- AUC(0-t) (read-out: AUClast, adjusted geometric mean): 16800 ng·h/mL
- Cmax (read-out: Cmax, adjusted geometric mean): 2910 ng/mL
Compound: CC(C)c1cc2[nH]c(=O)n(NS(C)(=O)=O)c(=O)c2cc1-c1ccnn1C [Compound (iii)]
